Legend:
[1] = cited from earlier work
α4β2 nicotinic receptors = target: T1, α4β2 nicotinic receptors (Homo sapiens, UniProt P17787+P43681); assay: Radioligand binding to α4β2 nicotinic receptors in SH-SYSY cells ([3H]cytosine)
T1 construct: Cerep, Inc. (Poitiers, France), contract assay; host or cells: SH-SYSY (SH-SY5Y) cells
Protocol: (§1) To examine the possibility that a (+)-1-(3, 4-dichlorophenyl)-3-azabicyclo[3.1.0]hexane may have effects mediated via direct actions on nicotinic receptors, its affinity was determined for α7 and α4β2 nicotinic receptors in radioligand binding assays. The assessment was conducted by Cerep, Inc. (Poitiers, France). Inhibition of binding to α4β2 nicotinic receptors in SH-SYSY cells was determined using the radioligand [^3H]cytosine at 0.6 nM concentration according to the method of Gopalakrishnan et al. (1996). Incubation was for 120 minutes at 4° C. and non-specific binding was determined with 10 μM nicotine. Inhibition of binding to α7 nicotinic receptors in SH-SYSY cells was determined using [^125I]α-bungarotoxin (0.05 nM) according to the method of Sharples et al. (2000). Incubation was 120 minutes at 37° C. and non-specific binding was determined using α-bungarotoxin (1 μM). Specific binding of the radioligands was determined by scintillation spectrometry technology.

α7 nicotinic receptors = target: T2, α7 nicotinic receptors (Homo sapiens, UniProt P36544); assay: Radioligand binding to α7 nicotinic receptors in SH-SYSY cells ([125I]α-bungarotoxin)
T2 construct: Cerep, Inc. (Poitiers, France), contract assay; host or cells: SH-SYSY (SH-SY5Y) cells
Protocol: as §1

[2] = tested on: alcohol-preferring (P) rats; assay: Nicotine potentiation of intracranial self-stimulation (ICSS) in alcohol-preferring rats; type: in vivo, rat
Protocol: (§2) Rats were anesthetized with isoflurane and an electrode was implanted in the medial forebrain bundles as previously described (Eiler et al., 2005; 2007). Behavioral training and testing was conducted in standard operant chambers (Coulbourn Instruments, Allentown, Pa.) equipped with a removable lever enclosed in a sound attenuating cubicle as previously reported (Eiler et al., 2005; 2007). Four dependent variables were collected in the studies: (1) the frequency that corresponds with 50% of responding (EF50), (2) the minimum/lowest frequency capable of maintaining brain stimulation reward (BSR), (3) the maximum frequency producing the highest rate of lever pressing throughout the BSR session, and (4) the total number of lever presses produced during a 20 minute session.
After surgical implantation, rats were trained on a continuous reinforcement (FR1) schedule, then decreased to a frequency of reinforcement after every six correct responses (FR6) until stabilization.
Following the initial ICSS experiments, the effects of varied doses of nicotine were examined in the ICSS paradigm. Animals were prepared and trained as described above.
as §2, with “The effect of (+)-1-(3, 4-dichlorophenyl)-3-azabicyclo[3.1.0]hexane on the nicotine facilitation of ICSS was examined in P rats. Rats” for “Rats”, “session” for “session,”
After surgical implantation, rats were trained on a continuous reinforcement (FR1) schedule, then decreased to a frequency of reinforcement after every six correct responses (FR6) until stabilization. After training, the rats were sensitized with nicotine (0.4 mg/kg daily) using the Kelley 10-day sensitization model as described in Example I (rats were treated with either nicotine (0.4 mg/ml/kg) or saline once per day for 10 days in a test environment distinct from their home cages (Schroeder et al., 2001).
After sensitization, three of the nicotine cohorts of P rats (n=8) were given (+)-1-(3, 4-dichlorophenyl)-3-azabicyclo[3.1.0]hexane (10, 20 or 40 μg) into the medial prefrontal cortex (mPC) prior to the daily administration of nicotine (0.4 mg/ml/kg).

[3] = tested on: alcohol-preferring (P) rats; assay: Forced swim test during nicotine withdrawal in alcohol-preferring rats; type: in vivo, rat
Protocol: The forced swim test (FST) is an animal model of depression in which nicotine withdrawal causes increased immobility (i.e. despair) in the rodents. The FST accordingly may be used as an animal model to evaluate negative affective states during nicotine withdrawal, which may emulate “depressive-like” behavior in human nicotine addicts.
P rats were administered nicotine by subcutaneous injection of 0.4 mg/kg nicotine each day for 14 days and then deprived of nicotine. Lucki's modified FST (Cryan et al., 2002) was performed using immobility, climbing and swimming every twelve hours following the last dose of nicotine (12 hrs, 24 hrs, 36 hrs, 48 hrs, 60 hrs and 72 hrs) for 72 hours.

[4] = tested on: alcohol-preferring (P) rats; assay: Nicotine withdrawal effects in ICSS paradigm in alcohol-preferring rats; type: in vivo, rat
Protocol: as §2, with “session” for “session,”
After surgical implantation, rats were trained on a continuous reinforcement (FR1) schedule, and then decreased to a frequency of reinforcement after every six correct responses (FR6) until stabilization. After training, the rats were sensitized with nicotine (0.4 mg/kg daily) for 14 days. 12 hours after the last dose of nicotine, animals were run for a 20 min FR-6 ICSS sessions. ICSS sessions were run every 12 hours (12 hrs, 24 hrs, 36 hrs, 48 hrs, 60 hrs and 72 hrs) for 72 hours.
as §2, with “The effect of (+)-1-(3, 4-dichlorophenyl)-3-azabicyclo[3.1.0]hexane on nicotine withdrawal and ICSS was examined in P rats. Rats” for “Rats”, “session” for “session,”
After surgical implantation, rats were trained on a continuous reinforcement (FR1) schedule, and then decreased to a frequency of reinforcement after every six correct responses (FR6) until stabilization. After training, the rats were sensitized with nicotine (0.4 mg/kg daily) for 14 days. Rats were then given either PBS, 20 mg/kg of (+)-1-(3, 4-dichlorophenyl)-3-azabicyclo[3.1.0]hexane or 40 mg/kg of (+)-1-(3, 4-dichlorophenyl)-3-azabicyclo[3.1.0]hexane. After 48 hours, the animals were run for a 20 min FR-6 ICSS session.

[5] = tested on: alcohol-preferring (P) rats; assay: Nicotine sensitization, open field locomotor activity in alcohol-preferring rats; type: in vivo, rat; conditions: for locomotor activity when administered alone: oral 2.5-40 mg/kg without nicotine, P rats
Protocol: P and NP (alcohol-nonpreferring) rats were administered nicotine by subcutaneous injection of 0.4 mg/kg nicotine each day for 10 days. The rats were then immediately run for 90 minute locomotor sessions using an open-field activity monitoring cage (27×27×20.3 cm, Med Associates, Inc., St. Albans, Vt.). Activity counts represented by the number of infrared beam interruptions were recorded for each animal.
To evaluate the capacity of oral (+)-1-(3, 4-dichlorophenyl)-3-azabicyclo[3.1.0]hexane to block nicotine-induced sensitization in P rats, cohorts of P rats (n=6-9/group) were sensitized to nicotine as described in Example I. The rats were then divided into sixteen groups and given either vehicle, nicotine alone, 2.5 mg/kg (+)-1-(3, 4-dichlorophenyl)-3-azabicyclo[3.1.0]hexane, 5 mg/kg (+)-1-(3, 4-dichlorophenyl)-3-azabicyclo[3.1.0]hexane, 10 mg/kg (+)-1-(3, 4-dichlorophenyl)-3-azabicyclo[3.1.0]hexane, 25 mg/kg (+)-1-(3, 4-dichlorophenyl)-3-azabicyclo[3.1.0]hexane, or 40 mg/kg (+)-1-(3, 4-dichlorophenyl)-3-azabicyclo[3.1.0]hexane. Thirty minutes after administration of (+)-1-(3, 4-dichlorophenyl)-3-azabicyclo[3.1.0]hexane, half of the rats were given 0.4 mg/kg nicotine or vehicle. The rats were then immediately run for 90 minute locomotor sessions using an open-field activity monitoring cage (27×27×20.3 cm, Med Associates, Inc., St. Albans, Vt.). Activity counts represent the number of infrared beam interruptions were recorded for each animal.

[6] = read-out: % Inhibition of binding
[7] = oral 20 and 40 mg/kg, 48 hours nicotine abstinence
[8] = 0.2-0.8 mg/kg SQ, all 3 doses, sensitized P rats
[9] = after 0.4 mg/kg sc daily for 14 days
[10] = 12-72 hrs after last dose, 0.4 mg/kg daily for 14 days

T1 sequence (P43681 29-627 limits assumed): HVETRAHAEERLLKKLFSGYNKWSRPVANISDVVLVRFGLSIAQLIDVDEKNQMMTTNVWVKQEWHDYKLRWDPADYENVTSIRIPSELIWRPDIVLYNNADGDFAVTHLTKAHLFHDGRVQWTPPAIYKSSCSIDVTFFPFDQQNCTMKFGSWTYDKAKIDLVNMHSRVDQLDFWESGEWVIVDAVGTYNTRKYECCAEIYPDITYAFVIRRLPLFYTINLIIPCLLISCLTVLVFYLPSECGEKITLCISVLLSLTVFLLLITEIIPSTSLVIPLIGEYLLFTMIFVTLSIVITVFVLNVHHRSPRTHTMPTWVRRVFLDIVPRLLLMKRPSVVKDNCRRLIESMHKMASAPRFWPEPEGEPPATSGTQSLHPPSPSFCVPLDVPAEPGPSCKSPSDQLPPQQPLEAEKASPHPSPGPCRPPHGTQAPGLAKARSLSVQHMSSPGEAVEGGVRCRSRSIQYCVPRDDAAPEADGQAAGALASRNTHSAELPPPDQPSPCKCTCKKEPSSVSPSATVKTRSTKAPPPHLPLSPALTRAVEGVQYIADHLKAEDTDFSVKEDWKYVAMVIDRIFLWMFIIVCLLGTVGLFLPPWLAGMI
T1 sequence (P17787 26-502): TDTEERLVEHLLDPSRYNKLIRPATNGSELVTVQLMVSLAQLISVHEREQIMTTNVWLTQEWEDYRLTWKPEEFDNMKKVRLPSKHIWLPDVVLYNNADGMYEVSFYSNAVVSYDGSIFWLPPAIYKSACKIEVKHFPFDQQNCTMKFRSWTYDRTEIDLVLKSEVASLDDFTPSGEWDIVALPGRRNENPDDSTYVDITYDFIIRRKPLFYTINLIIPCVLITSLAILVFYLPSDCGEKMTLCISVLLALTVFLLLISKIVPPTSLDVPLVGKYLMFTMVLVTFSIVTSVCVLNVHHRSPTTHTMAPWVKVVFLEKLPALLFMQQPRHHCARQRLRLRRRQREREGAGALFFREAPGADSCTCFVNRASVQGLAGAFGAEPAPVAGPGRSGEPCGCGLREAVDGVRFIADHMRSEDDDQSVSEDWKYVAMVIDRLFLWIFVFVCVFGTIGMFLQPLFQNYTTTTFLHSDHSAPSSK
T2 sequence (P36544 23-502): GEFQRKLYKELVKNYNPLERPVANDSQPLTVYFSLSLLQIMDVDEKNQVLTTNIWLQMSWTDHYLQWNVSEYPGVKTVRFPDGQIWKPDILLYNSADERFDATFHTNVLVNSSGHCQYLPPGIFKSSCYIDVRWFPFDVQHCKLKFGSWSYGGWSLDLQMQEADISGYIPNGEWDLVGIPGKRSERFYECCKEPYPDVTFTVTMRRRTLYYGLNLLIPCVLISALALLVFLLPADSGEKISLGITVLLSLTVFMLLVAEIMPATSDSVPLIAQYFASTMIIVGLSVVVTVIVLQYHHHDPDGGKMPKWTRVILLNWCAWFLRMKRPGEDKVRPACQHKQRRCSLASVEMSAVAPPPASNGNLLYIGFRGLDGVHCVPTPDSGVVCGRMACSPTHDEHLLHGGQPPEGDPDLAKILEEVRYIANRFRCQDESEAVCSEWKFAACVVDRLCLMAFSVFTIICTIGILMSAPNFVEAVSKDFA

Question: For COC[C@@H]1[C@@H](c2ccc(Cl)c(Cl)c2)C[C@@H]2CC[C@H]1N2 [GSK372475, reference compound], which “noradrenergic side effects such as significantly elevated heart rate and increased systolic and diastolic blood pressure” value ([1]; in vivo) is on record?
Answer: seen

Question: With Clc1ccc([C@]23CNC[C@H]2C3)cc1Cl [amitifadine, (1R,5S)-(+)-1-(3,4-dichlorophenyl)-3-azabicyclo[3.1.0]hexane] as the compound, how does the tolerability ([1]; U.S. Ser. No. 13/310,694, Graff et al. 2009) read?
Answer: well tolerated

Question: And the “dopaminergic side effects such as nausea, vomiting, and hypomania” value ([1]; in vivo)?
Answer: did not lead to

Question: What about the “noradrenergic side effects such as significantly elevated heart rate and increased systolic and diastolic blood pressure” value ([1]; in vivo) of the same compound?
Answer: did not lead to

Question: And the inhibition at 0.1 µM (α4β2 nicotinic receptors; concentration 100 nM)?
Answer: 17%

Question: And the inhibition at 1 µM (α4β2 nicotinic receptors; concentration 1000 nM)?
Answer: 14%

Question: What about the inhibition at 10 µM (α4β2 nicotinic receptors; concentration 10000 nM) of the same compound?
Answer: 13%

Question: What about the “effect on binding of radioligand” value (α4β2 nicotinic receptors; concentrations from 100 to 10,000 nM) of the same compound?
Answer: no appreciable effect

Question: What about the inhibition at 0.1 µM (α7 nicotinic receptors; [6]) of the same compound?
Answer: 13%

Question: What about the inhibition at 1 µM (α7 nicotinic receptors; [6]) of the same compound?
Answer: 6%

Question: And the inhibition at 10 µM (α7 nicotinic receptors; [6])?
Answer: -9%

Question: What about the “effect on binding of radioligand” value (α7 nicotinic receptors; α7, concentrations from 100 to 10,000 nM) of the same compound?
Answer: no appreciable effect

Question: And the “nicotine elevation in total responding” value ([2]; 10, 20 or 40 μg into mPC)?
Answer: attenuation

Question: And the “nicotine reduction of EF50” value ([2]; 10, 20 or 40 μg into mPC)?
Answer: attenuation

Question: And the “nicotine reduction of minimum frequency” value ([2]; 10, 20 or 40 μg into mPC)?
Answer: attenuation

Question: And the “nicotine facilitation on ICSS” value ([2]; 10, 20 or 40 μg into medial prefrontal cortex immediately prior to nicotine 0.4 mg/ml/kg, P rats)?
Answer: significantly reduced

Question: What about the “nicotine-induced increases in immobility” value ([3]; oral 12.5 or 25 mg/kg administered at 48 hours of nicotine abstinence) of the same compound?
Answer: significantly attenuated

Question: What about the “reduction in responding produced by the 48 hour withdrawal period” value ([4]; oral 20 and 40 mg/kg) of the same compound?
Answer: elevated

Question: And the “nicotine elevation of the reward threshold, EF50” value [4, 7]?
Answer: profound reduction

Question: What about the “nicotine elevation of the reward threshold, minimum frequency” value [4, 7] of the same compound?
Answer: profound reduction

Question: What about the “nicotine-induced increases in horizontal activity” value ([5]; oral 2.5, 5, 10, 25, 40 mg/kg, 30 min before 0.4 mg/kg nicotine, sensitized P rats, 90 minute open field session) of the same compound?
Answer: significantly reduced

Question: And the “locomotor activity when administered alone” value ([5]; 90 minute open field session)?
Answer: did not significantly alter

Question: What about the “locomotor activity when administered alone” value ([5]; 90 minute open field session, listed as (+)-1-(3, 4-dichlorophenyl)-3-azabicyclo[3.1.0]hexane) of the same compound?
Answer: did not alter

Question: For CN1CCCC1c1cccnc1 (stereo not shown) [nicotine], which “sensitivity to the reward potentiating effects of nicotine in ICSS following sensitization” value ([2]; 0.4 mg/kg sc on day 11, P, but not NP, rats) is on record?
Answer: enhanced sensitivity

Question: What about the “ICSS responding versus saline” value ([2]; 0.2-0.8 mg/kg SQ on day 11, sensitized P rats) of the same compound?
Answer: higher responding than did saline

Question: And the EF50 [2, 8]?
Answer: reduction

Question: What about the minimum frequency [2, 8] of the same compound?
Answer: reduction

Question: What about the “climbing during nicotine abstinence” value [3, 9] of the same compound?
Answer: Reduction

Question: And the “swimming during nicotine abstinence” value [3, 9]?
Answer: Reduction

Question: And the “immobility during nicotine abstinence” value ([3]; at 48 and 72 hours after 0.4 mg/kg sc daily for 14 days)?
Answer: significant elevation

Question: What about the EF50 during withdrawal [4, 10] of the same compound?
Answer: time dependent increase

Question: And the “minimum frequency capable of maintaining BSR during withdrawal” value [4, 10]?
Answer: time dependent increase

Question: What about the “total ICSS responding during withdrawal” value [4, 10] of the same compound?
Answer: marked reduction

Question: What about the “sensitization to nicotine (open field activity)” value ([5]; 0.4 mg/kg sc daily for 10 days, P versus NP rats) of the same compound?
Answer: occurs in P rats only

Source: patent publication US20170209415A1, “USE OF (+)-1-(3,4-DICHLOROPHENYL)-3-AZABICYCLO[3.1.0]HEXANE TO TREAT ADDICTIVE DISORDERS INCLUDING NICOTINE ADDICTION” (priority 2012, published 2017)
